# Source: PubChem BioAssay (NCI)
#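 Compound exposure: 48 hours, 5 concentrations, 96-well plates. Abbreviation: GI50, concentration required for 50% inhibition of growth. At the TGI there is no net growth.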
# Tests used:
# Test in all cases: DTP human tumour cell line panel, 48 h
# [1] = system: BT-549 breast
# [2] = system: SN12C renal
# [3] = system: MCF7 breast
# [4] = system: T-47D breast
# [5] = system: RXF 393 renal
# [6] = system: SR leukemia
# [7] = system: SK-MEL-5 melanoma
# [8] = system: HOP-92 NSCLC
# [9] = system: NCI-H23 lung
# [10] = system: NCI/ADR-RES ovarian
# [11] = system: MALME-3M melanoma
# [12] = system: SF-268 CNS
# [13] = system: A549 NSCLC
# [14] = system: SW-620 colon
# [15] = system: CAKI-1 renal
# [16] = system: OVCAR-5 ovarian
# [17] = system: NCI-H460 lung
# [18] = system: PC-3 prostate
# [19] = system: KM12 colon
# [20] = system: NCI-H226 lung
# [21] = system: HS 578T breast
# [22] = system: TK-10 renal
# [23] = system: HT29 colon
# [24] = system: NCI-H522 lung
# [25] = system: HL-60(TB) leukemia
# [26] = system: K-562 leukemia
# [27] = system: SNB-75 CNS
# [28] = system: SK-MEL-28 melanoma
# [29] = system: CCRF-CEM leukemia
# [30] = system: RPMI-8226 leukemia
# [31] = system: 786-0 renal
# [32] = system: DU-145 prostate
# [33] = system: MDA-MB-435
# [34] = system: A498 renal
# [35] = system: ACHN renal
# [36] = system: OVCAR-3 ovarian
# [37] = system: M14 melanoma
# [38] = system: SK-MEL-2 melanoma
# [39] = system: SNB-19 CNS
# [40] = system: COLO 205 colon
# [41] = system: OVCAR-8 ovarian
# [42] = system: HOP-62 NSCLC
# [43] = system: HCT-116 colon
# [44] = system: HCC-2998 colon
# [45] = system: MDA-MB-231 breast
# [46] = system: UACC-257 melanoma
# [47] = system: UACC-62 melanoma
# [48] = system: SF-539 CNS
# [49] = system: IGROV1 ovarian
# [50] = system: HCT-15 colon
# [51] = system: OVCAR-4 ovarian
# [52] = system: LOX IMVI melanoma
# [53] = system: SK-OV-3 ovarian
# [54] = system: SF-295 CNS
# [55] = system: MOLT-4 leukemia
# [56] = system: U251 CNS
# [57] = system: UO-31 renal
# [58] = system: EKVX NSCLC
smiles,measurement,setting,value
CC(=O)OC[C@H]1O[C@@H](n2ccc(=O)[nH]c2=O)[C@H](OC(C)=O)[C@@H]1OC(C)=O,GI50,[1],> 100 µM
same,TGI,[1],> 100 µM
same,GI50,[2],> 100 µM
same,TGI,[2],> 100 µM
same,GI50,[3],> 100 µM
same,TGI,[3],> 100 µM
same,GI50,[4],> 100 µM
same,TGI,[4],> 100 µM
same,GI50,[5],> 100 µM
same,TGI,[5],> 100 µM
same,GI50,[6],> 100 µM
same,TGI,[6],> 100 µM
same,GI50,[7],> 100 µM
same,TGI,[7],> 100 µM
same,GI50,[8],> 100 µM
same,TGI,[8],> 100 µM
same,GI50,[9],> 100 µM
same,TGI,[9],> 100 µM
same,GI50,[10],> 100 µM
same,TGI,[10],> 100 µM
same,GI50,[11],> 100 µM
same,TGI,[11],> 100 µM
same,GI50,[12],> 100 µM
same,TGI,[12],> 100 µM
same,GI50,[13],> 100 µM
same,TGI,[13],> 100 µM
same,GI50,[14],> 100 µM
same,TGI,[14],> 100 µM
same,GI50,[15],> 100 µM
same,TGI,[15],> 100 µM
same,GI50,[16],> 100 µM
same,TGI,[16],> 100 µM
same,GI50,[17],> 100 µM
same,TGI,[17],> 100 µM
same,GI50,[18],> 100 µM
same,TGI,[18],> 100 µM
same,GI50,[19],> 100 µM
same,TGI,[19],> 100 µM
same,GI50,[20],> 100 µM
same,TGI,[20],> 100 µM
same,GI50,[21],> 100 µM
same,TGI,[21],> 100 µM
same,GI50,[22],> 100 µM
same,TGI,[22],> 100 µM
same,GI50,[23],> 100 µM
same,TGI,[23],> 100 µM
same,GI50,[24],> 100 µM
same,TGI,[24],> 100 µM
same,GI50,[25],> 100 µM
same,TGI,[25],> 100 µM
same,GI50,[26],> 100 µM
same,TGI,[26],> 100 µM
same,GI50,[27],> 100 µM
same,TGI,[27],> 100 µM
same,GI50,[28],> 100 µM
same,TGI,[28],> 100 µM
same,GI50,[29],> 100 µM
same,TGI,[29],> 100 µM
same,GI50,[30],> 100 µM
same,TGI,[30],> 100 µM
same,GI50,[31],> 100 µM
same,TGI,[31],> 100 µM
same,GI50,[32],> 100 µM
same,TGI,[32],> 100 µM
same,GI50,[33],> 100 µM
same,TGI,[33],> 100 µM
same,GI50,[34],> 100 µM
same,TGI,[34],> 100 µM
same,GI50,[35],> 100 µM
same,TGI,[35],> 100 µM
same,GI50,[36],> 100 µM
same,TGI,[36],> 100 µM
same,GI50,[37],> 100 µM
same,TGI,[37],> 100 µM
same,GI50,[38],> 100 µM
same,TGI,[38],> 100 µM
same,GI50,[39],> 100 µM
same,TGI,[39],> 100 µM
same,GI50,[40],> 100 µM
same,TGI,[40],> 100 µM
same,GI50,[41],> 100 µM
same,TGI,[41],> 100 µM
same,GI50,[42],> 100 µM
same,TGI,[42],> 100 µM
same,GI50,[43],> 100 µM
same,TGI,[43],> 100 µM
same,GI50,[44],> 100 µM
same,TGI,[44],> 100 µM
same,GI50,[45],> 100 µM
same,TGI,[45],> 100 µM
same,GI50,[46],> 100 µM
same,TGI,[46],> 100 µM
same,GI50,[47],> 100 µM
same,TGI,[47],> 100 µM
same,GI50,[48],> 100 µM
same,TGI,[48],> 100 µM
same,GI50,[49],> 100 µM
same,TGI,[49],> 100 µM
same,GI50,[50],> 100 µM
same,TGI,[50],> 100 µM
same,GI50,[51],> 100 µM
same,TGI,[51],> 100 µM
same,GI50,[52],> 100 µM
same,TGI,[52],> 100 µM
same,GI50,[53],> 100 µM
same,TGI,[53],> 100 µM
same,GI50,[54],> 100 µM
same,TGI,[54],> 100 µM
same,GI50,[55],> 100 µM
same,TGI,[55],> 100 µM
same,GI50,[56],> 100 µM
same,TGI,[56],> 100 µM
same,GI50,[57],> 100 µM
same,TGI,[57],> 100 µM
same,GI50,[58],> 100 µM
same,TGI,[58],> 100 µM
